From patent US5744339A, “Thiomethylene group-containing aldehyde cysteine and serine protease inhibitors” (Cephalon, Inc., priority 1996, dated 1998)

What was measured:
Type in all cases: biochemical
cathepsin B = biological target: T1, cathepsin B (Homo sapiens, UniProt P07858); assay: Inhibition of cathepsin B (cysteine protease) activity; details: 0.1 mM Cbz-Phe-Arg-AMC, pH 6.0; read-out: Cat B IC50
T1 construct: purchased Calbiochem 219364
Method: To evaluate inhibitory activity, stock solutions (40 times concentrated) of each compound to be tested were prepared in 100% anhydrous DMSO and 5 μL of each inhibitor preparation were aliquoted into each of three wells of a 96-well plate. Calpain I, prepared by a modification of the method of W. J. Lee et al. (Biochem. […] To start the reaction, 20 μL of 50 mM CaCl2 in assay buffer was added to all wells of the plate, excepting three, which were used as background signal baseline controls. Substrate hydrolysis was monitored every 5 minutes for a total of 30 minutes using a Fluoroskan II fluorescence plate reader. Substrate hydrolysis in the absence of inhibitor was linear for up to 15 minutes. Inhibition of calpain I activity was calculated as the percent decrease in the rate of substrate hydrolysis in the presence of inhibitor relative to the rate in its absence. Comparison between the inhibited and control rates was made within the linear range for substrate hydrolysis. For screening, compounds were tested at 10 μm. Compounds having 50% inhibition at 10 μM were considered active. […] The results were plotted as % inhibition versus log inhibitor concentration and the IC50 was calculated from linear regression of the data. […] Additionally, the order of reagents added to the plate was altered because both enzymes are constitutively active. Following inhibitor addition to the plates, appropriate 2× concentrated stock dilutions of the enzyme preparations were made in assay buffer and 10 ul added to each well. The assay was initiated by addition of 100 ul of 2× concentrated stock dilution of substrate in assay buffer. Substrate hydrolysis was monitored using a Fluoroskan II (ex=390 nm; em=460 nm).

α-chymotrypsin = biological target: T2, α-chymotrypsin (Bos taurus, UniProt P00766); assay: Inhibition of α-chymotrypsin (serine protease) activity; details: 10 μM inhibitor; 0.03 mM SuccAla-Ala-Pro-Phe-AMC, pH 7.5; read-out: Chymotrypsin % I @ 10 μM
T2 construct: purchased Sigma Chem. Co. C-3142
Method: (§1) To evaluate inhibitory activity, stock solutions (40 times concentrated) of each compound to be tested were prepared in 100% anhydrous DMSO and 5 μL of each inhibitor preparation were aliquoted into each of three wells of a 96-well plate. Calpain I, prepared by a modification of the method of W. J. Lee et al. (Biochem. Internatl. 22: 163-171 (1990)), was diluted into assay buffer (i.e., 50 mM Tris, 50 mM NaCl, 1 mM EDTA, 1 mM EGTA, and 5 mM β-mercaptoethanol, pH 7.5 including 0.2 mM Succ-Leu-Tyr-MNA) and 175 μL aliquoted into the same wells containing the independent inhibitor stocks, as well as to positive control wells containing 5 μL DMSO, but no compound. To start the reaction, 20 μL of 50 mM CaCl2 in assay buffer was added to all wells of the plate, excepting three, which were used as background signal baseline controls. Substrate hydrolysis was monitored every 5 minutes for a total of 30 minutes using a Fluoroskan II fluorescence plate reader. Substrate hydrolysis in the absence of inhibitor was linear for up to 15 minutes.
(§2) Inhibition of calpain I activity was calculated as the percent decrease in the rate of substrate hydrolysis in the presence of inhibitor relative to the rate in its absence. Comparison between the inhibited and control rates was made within the linear range for substrate hydrolysis. For screening, compounds were tested at 10 μm. Compounds having 50% inhibition at 10 μM were considered active. The IC50s of inhibitors (i.e., the concentration yielding 50% inhibition) were determined from the percent decrease in the rates of substrate hydrolysis in the presence of five to seven different concentrations of the test compound. The results were plotted as % inhibition versus log inhibitor concentration and the IC50 was calculated from linear regression of the data.
(§3) Additionally,because α-chymotrypsin is not a calcium sensitive enzyme and is constitutively active, following addition of inhibitor stocks to the 96 well plates, 100 μl of a 2-fold concentrated stock of enzyme in dilution buffer was first added and the reaction started by addition of 10 μl of a 2-fold concentrated stock of substrate in assay buffer. Substrate hydrolysis was monitored every 5 minutes up to 30 minutes using a Fluoroskan II ([…]). The result is expressed as inhibition of α-chymotrypsin at 10 μM.

cathepsin L = biological target: T3, cathepsin L (Homo sapiens, UniProt P07711); assay: Inhibition of cathepsin L (cysteine protease) activity; details: 0.006 mM Cbz-Phe-Arg-AMC, pH 6.0; read-out: Cat L IC50
T3 construct: purchased Calbiochem 219402
T3 sequence (P07711 114-288 limits assumed): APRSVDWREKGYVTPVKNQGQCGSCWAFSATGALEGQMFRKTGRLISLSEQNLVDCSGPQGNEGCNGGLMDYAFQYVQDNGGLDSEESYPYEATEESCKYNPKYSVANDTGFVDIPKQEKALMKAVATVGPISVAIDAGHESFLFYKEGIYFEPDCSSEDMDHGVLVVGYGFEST
T3 sequence (P07711 292-333 limits assumed): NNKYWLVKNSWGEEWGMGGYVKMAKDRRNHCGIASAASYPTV
Method: as §1, §2
Additionally, the order of reagents added to the plate was altered because both enzymes are constitutively active. Following inhibitor addition to the plates, appropriate 2× concentrated stock dilutions of the enzyme preparations were made in assay buffer and 10 ul added to each well.
The assay was initiated by addition of 100 ul of 2× concentrated stock dilution of substrate in assay buffer. Substrate hydrolysis was monitored using a Fluoroskan II (ex=390 nm; em=460 nm).

thrombin = biological target: T4, thrombin (Homo sapiens, UniProt P00734); assay: Inhibition of thrombin (serine protease) activity; details: 10 μM inhibitor; 25 μM Bz-Phe-Val-Arg-AMC, pH 7.5; read-out: Thrombin % I @ 10 μM
T4 construct: purchased Sigma Chem. Co. T-7009
Method: as §3
Inhibition of thrombin (Sigma Chem. Co. Cat. #T-7009) was evaluated as described for chymotrypsin except that the assay was performed in 50 mM Tris, 10 mM CaCl2, pH 7.5 and the substrate was 25 μM Bz-Phe-Val-Arg-AMC (Bachem cat#I-1080).

Calpain I = biological target: T5, Calpain I (Homo sapiens, UniProt P07384); assay: Inhibition of calpain I (cysteine protease) activity; details: 0.2 mM Succ-Leu-Tyr-MNA, pH 7.5, CaCl2 start
T5 construct: made in house
T5 sequence (P07384 1-714): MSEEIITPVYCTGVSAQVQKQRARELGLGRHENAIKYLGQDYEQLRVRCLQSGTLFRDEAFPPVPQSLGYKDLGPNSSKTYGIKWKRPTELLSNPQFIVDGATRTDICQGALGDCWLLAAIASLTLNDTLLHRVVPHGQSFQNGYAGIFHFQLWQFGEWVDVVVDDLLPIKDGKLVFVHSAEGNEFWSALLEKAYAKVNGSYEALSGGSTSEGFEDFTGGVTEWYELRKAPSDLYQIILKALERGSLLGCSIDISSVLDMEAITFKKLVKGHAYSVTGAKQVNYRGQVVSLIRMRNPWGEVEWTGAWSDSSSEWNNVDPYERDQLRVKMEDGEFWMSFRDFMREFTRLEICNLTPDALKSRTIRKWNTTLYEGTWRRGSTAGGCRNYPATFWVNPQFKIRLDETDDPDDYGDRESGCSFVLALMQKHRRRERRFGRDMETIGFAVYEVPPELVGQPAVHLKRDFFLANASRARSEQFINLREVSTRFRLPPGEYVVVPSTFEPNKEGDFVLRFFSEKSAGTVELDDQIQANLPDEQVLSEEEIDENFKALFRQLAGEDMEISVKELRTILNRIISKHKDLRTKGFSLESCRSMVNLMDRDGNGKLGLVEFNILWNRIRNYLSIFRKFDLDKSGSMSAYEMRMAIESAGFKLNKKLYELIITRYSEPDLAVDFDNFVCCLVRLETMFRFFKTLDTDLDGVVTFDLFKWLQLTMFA
T5 sequence (P04632 1-268 partner): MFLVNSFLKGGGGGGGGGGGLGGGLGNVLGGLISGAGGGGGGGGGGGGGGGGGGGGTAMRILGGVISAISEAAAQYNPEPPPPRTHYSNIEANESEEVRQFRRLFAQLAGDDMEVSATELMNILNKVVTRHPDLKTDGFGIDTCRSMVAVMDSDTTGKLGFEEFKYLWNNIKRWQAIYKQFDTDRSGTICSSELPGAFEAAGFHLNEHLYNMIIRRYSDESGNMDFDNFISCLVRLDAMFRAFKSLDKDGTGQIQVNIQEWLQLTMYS
Method: To evaluate inhibitory activity, stock solutions (40 times concentrated) of each compound to be tested were prepared in 100% anhydrous DMSO and 5 μL of each inhibitor preparation were aliquoted into each of three wells of a 96-well plate. Calpain I, prepared by a modification of the method of W. J. Lee et al. (Biochem. […] To start the reaction, 20 μL of 50 mM CaCl2 in assay buffer was added to all wells of the plate, excepting three, which were used as background signal baseline controls. Substrate hydrolysis was monitored every 5 minutes for a total of 30 minutes using a Fluoroskan II fluorescence plate reader. Substrate hydrolysis in the absence of inhibitor was linear for up to 15 minutes. Inhibition of calpain I activity was calculated as the percent decrease in the rate of substrate hydrolysis in the presence of inhibitor relative to the rate in its absence. Comparison between the inhibited and control rates was made within the linear range for substrate hydrolysis. For screening, compounds were tested at 10 μm. Compounds having 50% inhibition at 10 μM were considered active. […] The results were plotted as % inhibition versus log inhibitor concentration and the IC50 was calculated from linear regression of the data.

IC50 (cathepsin B) [nM] | inhibition at 10 µM (α-chymotrypsin) [%] | IC50 (cathepsin L) [nM] | inhibition at 10 µM (thrombin) [%] | IC50 (Calpain I) [nM] | Compound
60 | 18 | 3 | 2 | 30 | CC(C)CC(CC[S+]([O-])c1ccc2ccccc2c1)C(=O)N[C@H](C=O)CC(C)C (some centres unmarked) [Compound 13, 2-Naphthyl--S(O)--CH2 CH2 CH(iBu)CO--Leu--H]
60 | 11 | 8 | 5 | 75 | CC(C)CC(CCSc1ccc2ccccc2c1)C(=O)N[C@H](C=O)CC(C)C (some centres unmarked) [Compound 11, 2-Naphthyl--SCH2 CH2 CH(iBu)CO--Leu--H]
4500 | 12 | 32 | 2 | 500 | CC(C)C[C@@H](CCS(=O)(=O)c1ccc2ccccc2c1)C(=O)N[C@H](C=O)CC(C)C [Compound 9, 2-Naphthylsulfonyl--CH2 CH2 CH(iBu)CO--Leu--H]
150 | 11 | 3 | 1 | 50 | CC(C)C[C@H](CCS(=O)(=O)c1ccc2ccccc2c1)C(=O)N[C@H](C=O)CC(C)C [Compound 10, 2-Naphthylsulfonyl--CH2 CH2 CH(iBu)CO--Leu--H]
